Laboratory results reported in US12529694B2, “Human in vitro cardiotoxicity model” (Brown University, priority 2019, dated 2026).
Where two headings read alike, the source gives them in different places.

Assays:
[1] = system: human cardiac fibroblasts; assay: Biochemical myofibroblast activation of human cardiac fibroblasts, αSMA immunofluorescence normalized by vimentin; assay type: cell-based; conditions: 10 ng/ml TGF-β1 for forty-eight hours; passage 4 hCFs
Experimental: The inventors next assessed the ability of human cardiac fibroblasts to be further activated via biochemical stimulation by treating passage 4 human cardiac fibroblasts with 10 ng/ml TGF-β1 for forty-eight hours. Cells were fixed and fluorescently labeled for αSMA and vimentin.

[2] = system: hiPSC-CMLP microtissues
Source text: Cardiomyocyte differentiation. The inventors differentiated cardiomyocytes (CMs) from human pluripotent stem cells; either human embryonic stem cells (hESCs, e.g. line RUES2) or human induced pluripotent stem cells (hiPSCs; Gibco human episomal iPSCs from CD34+ cord blood, ThermoFisher Scientific, NCRM-5 human episomal iPSCs from CD34+ cord blood, NIH Center for Regenerative Medicine, WTC11 GM25256 human episomal iPSCs from dermal fibroblasts, The Gladstone Institutes, UCSF) in high-density monolayer cultures. […] Human pluripotent stem cells were cultured on plates coated with truncated human vitronectin (Life Technologies) in Essential 8 medium (ThermoFisher). […] Medium was changed daily until initiation of differentiation (day 0), when cells were approximately 60-90% confluent. […] C-59 (Tocris) or 1 μM XAV939 (Tocris), all chemical Wnt inhibitors, at day 3. […] Some differentiating cells received 100 ng/ml neuregulin-1β (NRG1) daily on days 5-18 (until use in engineered tissues) and/or in engineered tissues. Some engineered tissues received 100 nM insulin-like growth factor 1 (IGF1) daily and/or 100 ng/ml NRG1 daily in engineered tissues. […] Some experiments used unpurified cells as controls and were matched for duration of culture for experiments. Cells undergoing metabolic-based lactate purification were assessed for density and beating visually, and left in the wells of the high-density monolayer cultures for lactate purification if density was high and beating was uniform across large areas of the wells. Cells not meeting these requirements for density and beating were replated at high density, 5-6×10^6 cells/cm^2 on Matrigel-coated 6 well plates in RPMI+B27 medium after 10-20 days of differentiation. All cells undergoing lactate purification were not fed for 4 days as a starvation period to encourage a switch in metabolism from glycolysis to oxidative phosphorylation in the cardiomyocytes, which are capable of this type of metabolism, while non-cardiomyocytes have a lower ability to switch the metabolic phenotype and therefore die, resulting in more pure populations of cardiomyocytes. […] Lactate purified cells were fed with RPMI+B27 until robust beating returned or appeared. Cardiac purity is assessed by flow cytometry analysis.
Fabrication of microtissue mold hydrogels and 3D microtissue culture. Scaffold-free three-dimensional microtissues (spheroid in shape, also called spheroids and/or organoids) are generated using non-adhesive agarose gels with cylindrical microwells with hemispherical bottoms to guide self-assembly. Sterilized 2% (wt/vol) agarose is pipetted into molds designed for 24-well plates with 800-μm-diameter rounded pegs (Microtissues, Providence, RI, USA). After being cooled to room temperature (˜5 minutes), the agarose gels are separated from the molds and transferred to single wells of 24-well plates. For equilibration, 1 mL medium is added to each well. Hydrogels are equilibrated at least one hour or overnight at 37° C. in a humidified incubator with 5% CO2. […]
Optical mapping and automated action potential duration analysis. […] Fluorescence images were filtered using nonlinear bilateral filter (spatial filter: 5×5 window, temporal filter: 21 point window) to preserve action potential upstrokes from blurring. Typically, four microtissues were recorded simultaneously/scan at this magnification.

[3] = system: rodents; conditions: greater sensitivity in female rats than male rats; increased with isoproterenol stimulation; cited from earlier work
[4] = system: hiPSC-CM microtissues; conditions: human
Source text: Fabrication of microtissue mold hydrogels and 3D microtissue culture. Scaffold-free three-dimensional microtissues (spheroid in shape, also called spheroids and/or organoids) are generated using non-adhesive agarose gels with cylindrical microwells with hemispherical bottoms to guide self-assembly. Sterilized 2% (wt/vol) agarose is pipetted into molds designed for 24-well plates with 800-μm-diameter rounded pegs (Microtissues, Providence, RI, USA). After being cooled to room temperature (˜5 minutes), the agarose gels are separated from the molds and transferred to single wells of 24-well plates. For equilibration, 1 mL medium is added to each well. Hydrogels are equilibrated at least one hour or overnight at 37° C. in a humidified incubator with 5% CO2. […] Medium is then added to each well (5 ml), and cells are cultured for 6-8 days with electrical field stimulation with a 1 Hz, 10.0 V, 4.0 ms duration bipolar pulse train for the full three-dimensional culture period (C-Pace EP, IonOptix).
Optical mapping and automated action potential duration analysis. The inventors used an Olympus MVX10 microscope to image 1.2×1.2-mm^2 regions. […] Fluorescence images were filtered using nonlinear bilateral filter (spatial filter: 5×5 window, temporal filter: 21 point window) to preserve action potential upstrokes from blurring. Typically, four microtissues were recorded simultaneously/scan at this magnification. […] The pixels with action potentials were identified from Fast Fourier transformation (FFT) of fluorescence signals. After appropriate thresholding and image segmentation, the region of each microtissue was grouped and the fluorescence signals from the pixels in the same microtissue were average and used for action potential analysis.
Validation and screening of toxicants for arrhythmogenic risk. […] Concentrations are selected to span human exposure levels or blood serum levels and quantify dose-dependent changes over a wide range (with a goal of more than 10,000× change in concentration and at least 4-6 doses). […]

[5] = system: late ICa; conditions: cited from earlier work
[6] = system: INCX; conditions: cited from earlier work
[7] = Clinical exposure of ranolazine (FDA documentation); assay type: in vivo, human; conditions: dose of 1000 mg b.i.d., bracketed conversion
[8] = system: peak ICa; conditions: cited from earlier work
[9] = system: late sodium current (INa,late); conditions: read-out: IC50, late sodium current (INa,late) block; cited from earlier work
[10] = cited from earlier work

With “TGF-β1: growth factor used for biochemical activation of human cardiac fibroblasts to a myofibroblast-like state” as the molecule, how does the “increase in normalized αSMA fluorescence compared to control” value [1] read?
Its value is 1.2 fold.

What does the source list for CC(C)(c1ccc(O)cc1)c1ccc(O)cc1 [BPA, bisphenol-A]?
APDtri (APD80-APD30) [2]: shorter; concentration that shifts action potential duration measurements [2]: one; excitability, pacing at 0.5 Hz [2]: fails to evoke action potentials; APD30 and APD50 versus APD80 ([2]; human, 20 min): APD30 and APD50 were shortened more than APD80; concentration promoting arrhythmias [3]: 0.001 µM

Which action potential duration ([4]; 5 mM) does the source give for Cn1c(=O)c2c(ncn2C)n(C)c1=O [caffeine] here?
The action potential duration was 90.5 ± 22.3 ms.

For COc1ccccc1OCC(O)CN1CCN(CC(=O)Nc2c(C)cccc2C)CC1 (stereo not drawn) [ranolazine], which IC50 [5] is on record?
The IC50 was 50 µM.

What about the IC50 [6] of the same molecule?
Its IC50 is 91 µM.

What about the Cmax ([7]; read-out: mean steady-state Cmax [in blood serum]) of the same molecule?
The Cmax was 6 µM.

What about the Cmax ([7]; human, serum, read-out: 95% of Cmax values) of the same molecule?
Its Cmax is 0.98 to 14.2 µM.

What about the IC50 [8] of the same molecule?
The IC50 was 296 µM.

What about the IC50 [9] of the same molecule?
Its IC50 is 5.9 µM.

What about the “APD changes over dose-response” value [2] of the same molecule?
The value was “moderate APD changes within a safety criteria of QT prolongation”.

What about the “mean steady-state Cmax [in blood serum]” value ([10]; dose of 1000 mg b.i.d.) of the same molecule?
Its value is 2569 ng/mL.

And the therapeutic concentration ([10]; human, in vivo)?
Its therapeutic concentration is 1 to 10 µM.

Which action potential duration ([4]; 100 nM) does the source give for CC(C)NCC(O)c1ccc(O)c(O)c1 (stereo not drawn) [isoproterenol] here?
The action potential duration was 120.1±10.5.

What about the “average reduction of APD80” value ([4]; 100 nM) of the same molecule?
The value was 45 ms.
